The GI50 is the concentration at which growth is held to half of that of the control.

Structures are written as SMILES.

GI50 data for ten compounds are collected here from patent US10781214B2, “Kinase inhibitor against wild-type and mutant EGFR” (PRECEDO PHARMACEUTICALS CO., LTD, priority 2015, dated 2020).

Format in all cases: cell-based
For assay [1], the system named is NCI-H1975 (expressing EGFR L858R/T790M double-mutant gene). The experiment in a line: Cancer cell growth, Cell Titer-Glo, 72 h: NCI-H1975. Particulars: Homo sapiens; NCI-H1975 cells, 72 h; read-out: GI50. The text has this: (§1) Compounds of the present invention were further evaluated for their selectivity in inhibiting proliferation of cancer cells by testing effects of the novel kinase inhibitors on proliferation of cancer cells. In the examples the following cells were selected: human non-small cell lung cancer cell NCI-H1975 (expressing EGFR L858R/T790M double-mutant gene), human-derived non-small cell lung cancer cell PC-9 (expressing EGFR delE746_A750 mutant gene), human-derived non-small cell lung cancer cell HCC827 (expressing EGFR delE746_A750 mutant gene), human lung adenocarcinoma cell HCC4006 (expressing EGFR delE746_A750 mutant gene), human non-small cell lung cancer cell NCI-H3255 (expressing EGFR L858R mutant gene), human skin squamous carcinoma cell A431 (expressing wild-type EGFR gene), human non-small cell lung cancer cell A549 (expressing wild-type EGFR gene), human non-small cell lung cancer cell NCI-H460 (expressing wild-type EGFR gene), human non-small cell lung cancer cell NCI-H2122 (expressing wild-type EGFR gene), Chinese hamster ovary (CHO) cell (Cricetulus griseus, hamster, Chinese, ovary), Chinese hamster lung cell (CHL), mouse pro-B cell BaF3. The cells above were all purchased from (USA).
(§2) The cells were incubated for 72 h, and then the number of viable cells was determined via quantitative determination with a microplate reader by using Cell Titer-Glo® (Promega, the USA) Luminescent Cell Viability Assay kit.
A general note: In ATP-based viability assays light output follows the ATP content of the culture.

The subject of assay [2] is HCC827 (expressing EGFR delE746_A750 mutant gene). The assay is described as follows: Cancer cell growth, Cell Titer-Glo, 72 h: HCC827. As to conditions: Homo sapiens; HCC827 cells, 72 h; read-out: GI50.
Text: as §1, §2

The subject of assay [3] is A549 (expressing wild-type EGFR gene). The assay is described as follows: Cancer cell growth, Cell Titer-Glo, 72 h: A549. Particulars: Homo sapiens; A549 cells, 72 h; read-out: GI50.
Text: as §1, §2

For assay [4], the system named is BaF3-FL-EGFR-T790M-L858R (stably expressing EGFR T790M/L858R mutant kinase). The assay is described as follows: Cell growth, Cell Titer-Glo, 72 h: BaF3-FL-EGFR-T790M-L858R. As to conditions: Mus musculus, BaF3-FL-EGFR-T790M-L858R cells.
Text: (§3) In addition, this example further uses: mouse BaF3-TEL-EGFR (stably expressing wild-type EGFR kinase), mouse BaF3-TEL-EGFR-L858R (stably expressing EGFR L858R mutant kinase), mouse BaF3-TEL-EGFR-T790M (stably expressing EGFR T790M mutant kinase), mouse BaF3-FL-EGFR-DeI19 (stably expressing EGFR delE746_A750 mutant kinase), mouse BaF3-FL-EGFR-T790M-L858R (stably expressing EGFR T790M/L858R mutant kinase), mouse BaF3/P210 (stably expressing bcr/abl˜(P210) mutant kinase), mouse BaF3-TEL-ABL-T315I (stably expressing ABLT315I mutant kinase), mouse BaF3-FLT3-ITD (stably expressing FLT3/ITD mutant kinase), mouse BaF3-TEL-JAK2 (stably expressing JAK2 kinase), mouse BaF3-TEL-JAK3 (stably expressing JAK3 kinase), mouse BaF3-TPR-MET (stably expressing MET kinase), mouse BaF3-TEL-BLK (stably expressing BLK kinase), mouse BaF3-TEL-ABL (stably expressing ABL kinase), mouse BaF3-TEL-BMX (stably expressing BMX kinase), mouse BaF3-TEL-ALK (stably expressing ALK kinase). The above cell lines were all constructed by our laboratory according to the following method: the kinase region sequences of human […], EGFR L858R, EGFR T790M, EGFR delE746_A750, EGFR T790M/L858R, bcr/abl˜(P210), ABL T315I, FLT3/ITD, JAK2, JAK3, MET, BLK, ABL, BMX, ALK were amplified respectively by PCR, inserted respectively into MSCV-Puro vectors harboring N-terminal fragment and/or NPM fragment and/or TPR fragment (Clontech), then the vectors were stably transfected into mouse BaF3 cells by retrovirus methods and growth factor IL-3 was removed, eventually obtaining cell lines that are transferred protein (EGFR, EGFR L858R, EGFR T790M, EGFR delE746_A750, EGFR T790M/L858R, bcr/abl˜(P210), ABL T315I, FLT3/ITD, JAK2, JAK3, MET, BLK, ABL, BMX, ALK)-dependent.
as §2

Assay [5] relates to PC-9 (expressing EGFR delE746_A750 mutant gene). The experiment in a line: Cancer cell growth, Cell Titer-Glo, 72 h: PC-9. As to conditions: Homo sapiens; PC-9 cells, 72 h; read-out: GI50.
Text: as §1, §2

The subject of another assay is mouse pro-B cell BaF3. The assay is described as follows: Cell growth, Cell Titer-Glo, 72 h: BaF3. Particulars: BaF3 cells, 72 h, read-out: GI50.
Text: as §1, §2

Assay [6] deals with NCI-H3255 (expressing EGFR L858R mutant gene). The assay is described as follows: Cancer cell growth, Cell Titer-Glo, 72 h: NCI-H3255. As to conditions: Homo sapiens; NCI-H3255 cells, 72 h; read-out: GI50.
Text: as §1, §2

In assay [7] the test system is BaF3-TEL-EGFR (stably expressing wild-type EGFR kinase). The assay is described as follows: Cell growth, Cell Titer-Glo, 72 h: BaF3-TEL-EGFR. Particulars: Mus musculus, BaF3-TEL-EGFR cells, read-out: GI50.
Text: as §3, §2

Assay [8] relates to BaF3-TEL-EGFR-T790M (stably expressing EGFR T790M mutant kinase). The experiment in a line: Cell growth, Cell Titer-Glo, 72 h: BaF3-TEL-EGFR-T790M. Particulars: Mus musculus, BaF3-TEL-EGFR-T790M cells, read-out: GI50.
Text: as §3, §2

Assay [9] deals with A431 (expressing wild-type EGFR gene). The assay is described as follows: Cancer cell growth, Cell Titer-Glo, 72 h: A431. As to conditions: Homo sapiens, A-431; A431 cells, 72 h; read-out: GI50.
Text: as §1, §2

Consider `C=CC(=O)N1CCC[C@@H](n2nc(-c3ccc(OCc4cccc(F)c4)c(OC)c3)c3c(N)ncnc32)C1` [Compound 8], for which the GI50 in assay [1] was 0.35 µM; in assay [2], 0.084 µM; in assay [3], 2.7 µM; in [4] it was 0.043 µM; in assay [5], 0.025 µM; in the assay on mouse pro-B cell BaF3, > 10 µM. Moreover, the GI50 in assay [6] turned out to be 0.056 µM.

Take `C=CC(=O)N1CCC[C@@H](n2nc(-c3ccc(OCc4ccccc4)c(F)c3)c3c(N)ncnc32)C1` [Compound 12, (R)-1-(3-(4-amino-3-(4-(benzyloxy)-3-fluorophenyl)-1H-pyrazolo[3,4-d]pyrimidin-1-yl)piperidin-1-yl)prop-2-en-1-one]: the GI50 in assay [1] was determined as 0.08 µM; in [2], 0.039 µM; in assay [3], 4.3 µM; in assay [7], 2.8 µM; in assay [5], 0.011 µM; with mouse pro-B cell BaF3 it was 7.4 µM. The figures for the GI50 in assay [8] and in assay [6] were < 0.0003 µM and 0.023 µM, respectively.

Regarding `C=CC(=O)N1CCC[C@@H](n2nc(-c3ccc(OCc4cccc(F)c4)c(F)c3)c3c(N)ncnc32)C1` [Compound 13, (R)-1-(3-(4-amino-3-(3-fluoro-4-((3-fluorobenzyl)oxy)phenyl)-1H-pyrazolo[3,4-d]pyrimidin-1-yl)piperidin-1-yl)prop-2-en-1-one], the GI50 in assay [1] was 0.017 µM; in assay [2], 0.016 µM; in [3] it was 7 µM; in [7], 2.8 µM; in [5], 0.002 µM; with mouse pro-B cell BaF3, 5.1 µM. For the same compound, the figures for the concentration for 50% growth inhibition (GI50) in assay [8] and in assay [6] were < 0.0003 µM and 0.015 µM, respectively.

For the compound `C=CC(=O)N1CCC[C@@H](n2nc(-c3ccc(OCc4nccs4)c(Cl)c3)c3c(N)ncnc32)C1` [Compound 28, (R)-1-(3-(4-amino-3-(3-chloro-4-(thiazol-2-ylmethoxy)phenyl)-1H-pyrazolo[3,4-d]pyrimidin-1-yl)piperidin-1-yl)prop-2-en-1-one], the concentration for 50% growth inhibition (GI50) is 0.008 µM in assay [1]; > 10 µM in [3]; 2.8 µM in [7]; 0.002 µM in assay [4]; 0.01 µM in [5]; 9.8 µM in the assay with mouse pro-B cell BaF3. Besides, the concentration for 50% growth inhibition (GI50) is > 10 µM in assay [9] and < 0.0003 µM in assay [6].

For `C=CC(=O)N1CCC[C@@H](n2nc(-c3ccc(OCc4ccc(C)nc4)c(Cl)c3)c3c(N)ncnc32)C1` [Compound 30, (R)-1-(3-(4-amino-3-(3-chloro-4-((6-methylpyridin-3-yl)methoxy)phenyl)-1H-pyrazolo[3,4-d]pyrimidin-1-yl)piperidin-1-yl)prop-2-en-1-one], the GI50 is 0.003 µM in assay [1]; > 10 µM in [3]; 3.3 µM in [7]; 0.002 µM in assay [4]; 0.038 µM in assay [5]; > 10 µM in the assay on mouse pro-B cell BaF3. The figures for the concentration for 50% growth inhibition (GI50) in assay [9] and in [6] were > 10 µM and 0.036 µM, respectively.

For the compound `C=CC(=O)N1CCC[C@@H](n2nc(-c3ccc(F)c(Cl)c3)c3c(N)ncnc32)C1` [Compound 31, (R)-1-(3-(4-amino-3-(3-chloro-4-flurophenyl)-1H-pyrazolo[3,4-d]pyrimidin-1-yl)piperidin-1-yl)prop-2-en-1-one], the GI50 was 0.095 µM in [1]; > 10 µM in [3]; 2.2 µM in [7]; 0.053 µM in [4]; 0.009 µM in assay [5]; > 10 µM in the assay with mouse pro-B cell BaF3. For the same compound, the GI50 in [9] was > 10 µM; in assay [6], 0.043 µM.

On to `CN(C)C/C=C/C(=O)N1CCC[C@@H](n2nc(-c3ccc(F)c(Cl)c3)c3c(N)ncnc32)C1` [Compound 32, (R)-1-(3-(4-amino-3-(3-chloro-4-flurophenyl)-1H-pyrazolo[3,4-d]pyrimidin-1-yl)piperidin-1-yl)-4-(dimethylamino)but-2-en-1-one], for which the 50% growth inhibitory concentration (GI50) is 0.71 µM in [1]; > 10 µM in assay [3]; 0.69 µM in assay [7]; 0.13 µM in assay [4]; 0.17 µM in [5]; 4.5 µM in the assay on mouse pro-B cell BaF3. Further, the GI50 was determined as 3.9 µM in assay [9] and 0.33 µM in assay [6].

Consider `C=CC(=O)N1CCC[C@@H](n2nc(-c3ccc(OCc4ccccn4)c(C(F)(F)F)c3)c3c(N)ncnc32)C1` [Compound 35, (R)-1-(3-(4-amino-3-(3-trifluoromethyl-4-(pyridin-2-ylmethoxy)phenyl)-1H-pyrazolo[3,4-d]pyrimidin-1-yl)piperidin-1-yl)prop-2-en-1-one], for which the concentration for 50% growth inhibition (GI50) is 0.056 µM in assay [1]; 3.1 µM in [3]; 3.6 µM in assay [7]; < 0.0003 µM in assay [4]; 0.18 µM in assay [5]; > 10 µM in the assay with mouse pro-B cell BaF3. In addition, the 50% growth inhibitory concentration (GI50) in [9] was > 10 µM; in assay [6], 0.046 µM.

Turning to `C=CC(=O)N1CCC[C@@H](n2nc(-c3ccc(OCc4ncc(C)c(OC)c4C)c(Cl)c3)c3c(N)ncnc32)C1` [Compound 36, (R)-1-(3-(4-amino-3-(3-chloro-4-((4-methoxy-3,5-dimethylpyridin-2-yl)methoxy)phenyl)-1H-pyrazolo[3,4-d]pyrimidin-1-yl)piperidin-1-yl)prop-2-en-1-one], the GI50 in assay [1] was < 0.0003 µM; in assay [3] it was 3.4 µM; in assay [7] it was 3.5 µM; in assay [4], < 0.0003 µM; in assay [5], 0.024 µM; in the assay with mouse pro-B cell BaF3 it was > 10 µM. The concentration for 50% growth inhibition (GI50) in [9] is > 10 µM; in assay [6], 0.044 µM.

For the compound `C=CC(=O)Nc1cc(Cn2nc(-c3ccc(F)c(Cl)c3)c3c(N)ncnc32)ccc1N(C)CCN(C)C` [Compound 40], the 50% growth inhibitory concentration (GI50) in assay [1] came to 1.2 µM; in assay [2], 1.6 µM; in assay [7], 1.3 µM; in assay [5], 1 µM; with mouse pro-B cell BaF3, 1.9 µM; in assay [9] it was 2.6 µM. For the same compound, in assay [6], the GI50 was determined as 3.7 µM.
